Patent US20140205569A1, “METHODS AND COMPOSITIONS FOR PREVENTING AND TREATING OSTEOARTHRITIS” (priority 2010, published 2014)

Experiments:
[1] = test system: Prostaglandin E2 (PGE2); assay: PGE2 levels in chondrocyte media by enzyme immunoassay, per cell; assay type: cell-based, canine; details: for PGE2 levels from chondrocyte media, Avg / PGE2 levels from chondrocyte media: fatty acid 50 μM; for PGE2 levels from chondrocyte media, Avg: average of four chondrocyte batches
Method: Canine cartilage was digested in a 37° C. shaking water bath using the following enzymes: trypsin (0.25%) for 25 minutes, hyaluronidase (150U/ml) for 1 hour, and collagenase (0.78%) overnight. Digested cartilage was filtered to obtain chondrocytes. Chondrocytes were expanded in monolayer culture with complete media. Composition of the complete media is Dulbecco's Modified Eagle Medium (DMEM)/F12 supplemented with 10% FBS, 1% P/S (100 U/mL penicillin and 100 μg/mL streptomycin) and 50 μg/ml ascorbic acid. Reaching subconfluence, chondrocytes were detached with 0.05% trypsin and cryopreserved. After cryopreservation, canine chondrocytes were expanded in a monolayer and, after reaching subconfluence, cells were trypsinized and subsequently immobilized in alginate beads. Cells suspended in complete media +3% alginate were dropped from a 18-gauge syringe into calcium chloride (120 mM) to form “beads.” Chondrocyte beads were cultured in complete media and media was changed every 2 or 3 days. At the end of the treatment, the chondrocyte beads were dissolved in sodium citrate (55 mM in 0.15 M NaCl). Suspensions were centrifuged at 2620 rpm for 5 minutes. Cells were washed with phosphate buffer and centrifuged again at 2620 rpm for 5 minutes. One mL RNAqueous™ lysis binding solution (Ambion, Austin, Tex.) was added to the isolated canine chondrocyte pellet, mixed thoroughly and stored at −80° C. until RNA isolation could be performed. Chondrocytes were enriched with a fatty acid at 50 μM just after they were enclosed in beads. FBS and ethanol were used as a vehicle. Once the enriched media were prepared, ethanol represented less than 0.1%. Cells were enriched with either arachidonic acid (AA) and dihomo-γ-linolenic acid for 3 weeks total in complete media. The 3rd week the enriched media also contained 10% stimulated monocyte neutrophil conditioned media (SMNCM). Chondrocyte beads were dissolved at the end of the experiment. Cell media was aliquoted in micro-centrifuge tubes and stored at −80° C. until analysis. Cells were enriched with either arachidonic acid (AA) and dihomo-γ-linolenic acid. Prostaglandin E2 (PGE2) levels were determined using Amersham Prostaglandin Prostaglandin E2 Biotrak Enzyme Immunoassay (EIA, GE Healthcare). Before performing the assay, media samples were thawed then diluted 50 to 250 times in assay buffer. Standards and samples were run in duplicate. The cell suspensions obtained after dissolving the alginate beads were centrifuged. After removing the supernatant, each cell pellet was resuspended in 1 ml of phosphate buffered saline. From each sample, 10 μL was added to the same volume of trypan blue stain before counting with a hemocytometer.

[2] = test system: canine chondrocytes; assay: Quantitative PCR expression of osteoarthritis-related genes in fatty-acid-enriched canine chondrocytes in alginate beads, stimulated with SMNCM; assay type: cell-based; details: fatty acid 50 μM, 3 weeks, 3rd week with 10% SMNCM; normalized to cyclophilin A; N=4
Method: Canine cartilage was digested in a 37° C. shaking water bath using the following enzymes: trypsin (0.25%) for 25 minutes, hyaluronidase (150U/ml) for 1 hour, and collagenase (0.78%) overnight. Digested cartilage was filtered to obtain chondrocytes. Chondrocytes were expanded in monolayer culture with complete media. Composition of the complete media is Dulbecco's Modified Eagle Medium (DMEM)/F12 supplemented with 10% FBS, 1% P/S (100 U/mL penicillin and 100 μg/mL streptomycin) and 50 μg/ml ascorbic acid. Reaching subconfluence, chondrocytes were detached with 0.05% trypsin and cryopreserved. After cryopreservation, canine chondrocytes were expanded in a monolayer and, after reaching subconfluence, cells were trypsinized and subsequently immobilized in alginate beads. Cells suspended in complete media +3% alginate were dropped from a 18-gauge syringe into calcium chloride (120 mM) to form “beads.” Chondrocyte beads were cultured in complete media and media was changed every 2 or 3 days. At the end of the treatment, the chondrocyte beads were dissolved in sodium citrate (55 mM in 0.15 M NaCl). Suspensions were centrifuged at 2620 rpm for 5 minutes. Cells were washed with phosphate buffer and centrifuged again at 2620 rpm for 5 minutes. One mL RNAqueous™ lysis binding solution (Ambion, Austin, Tex.) was added to the isolated canine chondrocyte pellet, mixed thoroughly and stored at −80° C. until RNA isolation could be performed.
Samples were vortexed and homogenized using a Quiashredder column (Qiagen, Valencia, Calif.) according to manufacturer's directions. The homogenized lysate was collected and 1 equal volume of 64% ethanol was added to it. This mixture was then applied to an RNAqueous™ filter cartridge, 700 uL at a time, and centrifuged for 1 minute at 10,000 rpm. The cartridge was washed using 700 uL wash solution #1 and 500 uL wash solution #2/3 with centrifugation at 10,000 rpm for 1 minute for each wash. The filter cartridge was dried by centrifugation (10,000 rpm) for 1 minute. RNA was eluted 3 times by centrifugation (as above) using 30 uL aliquots of 95-100° C. elution solution. The resulting RNA was DNAse-treated and quantitated in a Beckman DU 640B spectrophotometer (Beckman Coulter, Inc., Brea, Calif.) at 260 nm. Additionally, quantity and quality were assessed using a bioanalyzer (Agilent, Santa Clara, Calif.) according to manufacturer's directions.
Stimulated monocyte neutrophil conditioned media (SMNCM) was made by isolating monocytes and neutrophils from canine whole blood using NycoPrep™ according to the manufacturer's directions. Monocytes and neutrophils were stimulated with lipopolysaccharide (20 ng/mL) for 72 hours. The resulting supernatant was used as SMNCM in cell culture experimentation (SMNCM made up 10% of media used during experimentation and is kept in frozen aliquots).
Chondrocytes were enriched with a fatty acid at 50 μM just after they were enclosed in beads. FBS and ethanol were used as a vehicle. Once the enriched media were prepared, ethanol represented less than 0.1%. Cells were enriched with either arachidonic acid (AA) and dihomo-γ-linolenic acid for 3 weeks total in complete media. The 3rd week the enriched media also contained 10% stimulated monocyte neutrophil conditioned media (SMNCM). Chondrocyte beads were dissolved at the end of the experiment.
All samples were run singularly against each primer/probe set to determine what standard curve should be used. Standard curves were generated using serial dilutions of liver RNA or RNA from experimental samples. […] Values were normalized to cyclophilin A levels as determined by quantitative PCR. Inductions were calculated from each of the lowest sample's normalized value. N=4 for all treatments.
Values represent relative average induction values. […]

[3] = test system: NF-kB; assay: NF-kB activation measured as SEAP release in HT-29 clone 34 cells with or without rhTNF-alpha; assay type: cell-based; details: general statement of the discovery
Method: HT-29 clone 34 cells were seeded at 2.0×10^5 cells/well in DMEM with 5% FCS and 1% PS. Cells were incubated for 24 hours at 37° C. at 5% CO2 with or without rhTNF-alpha with dihomo-gamma-linolenic acid (0.1, 0.3, 0.5, 0.7 or 1 mg/ml) in ethanol as a vehicle. NF-kB activity was measured as SEAP release using a Phospha-Light™ System (Applied Biosystems, Bedford, Mass.) per manufacturer's directions.

Structure (SMILES) | PGE2 levels from chondrocyte media, Avg [1] | PGE2 levels from chondrocyte media ([1]; chondrocyte batch 1084) | PGE2 levels from chondrocyte media ([1]; chondrocyte batch 31010) | PGE2 levels from chondrocyte media ([1]; chondrocyte batch 31510) | PGE2 levels from chondrocyte media ([1]; chondrocyte batch 41210) | Quantitative PCR expression value 2252B (relative average induction) [2] | Quantitative PCR expression value ADAMTS-4 (relative average induction) [2] | Quantitative PCR expression value ADAMTS-5 (relative average induction) [2] | Quantitative PCR expression value CYTL-1 (relative average induction) [2] | Quantitative PCR expression value GRIA-4 (relative average induction) [2] | Quantitative PCR expression value IGF-2 (relative average induction) [2] | Quantitative PCR expression value IL-1 (relative average induction) [2] | Quantitative PCR expression value IL-6 (relative average induction) [2] | Quantitative PCR expression value IL-8 (relative average induction) [2] | Quantitative PCR expression value MMP-2 (relative average induction) [2] | Quantitative PCR expression value MMP-9 (relative average induction) [2] | Quantitative PCR expression value MMP-13 (relative average induction) [2] | Quantitative PCR expression value PC-2A (relative average induction) [2] | Quantitative PCR expression value SOX-9 (relative average induction) [2] | Quantitative PCR expression value TIMP-1 (relative average induction) [2] | other results
CCCCC/C=C\C/C=C\C/C=C\C/C=C\CCCC(=O)O [AA, arachidonic acid, reference compound] | 1414 fg/ml/cell | 957 fg/ml/cell | 473 fg/ml/cell | 274 fg/ml/cell | 3950 fg/ml/cell | 4.3 | 1.4 | 3.0 | 18.1 | 5.0 | 14.7 | 4.1 | 4.8 | 3.0 | 1.8 | 9.5 | 2.7 | 4.5 | 1.9 | 3.5 | Quantitative PCR expression value TIMP-2 (relative average induction) [2]: 1.6; Quantitative PCR expression value TNF-alpha (relative average induction) [2]: 26.4
CCCCC/C=C\C/C=C\C/C=C\CCCCCCC(=O)O [DGLA, dihomo-γ-linolenic acid] | 598 fg/ml/cell | 800 fg/ml/cell | 331 fg/ml/cell | 182 fg/ml/cell | 1080 fg/ml/cell | 4.7 | 1.6 | 2.8 | 18.0 | 4.2 | 15.9 | 2.4 | 3.9 | 3.1 | 1.6 | 22.9 | 2.1 | 5.2 | 1.9 | 3.7 | PGE2 % Decrease ([1]; 50 μM DGLA versus 50 μM AA, chondrocyte batch 1084): 16%; PGE2 % Decrease ([1]; 50 μM DGLA versus 50 μM AA, chondrocyte batch 31010): 30%; PGE2 % Decrease ([1]; 50 μM DGLA versus 50 μM AA, chondrocyte batch 31510): 34%; PGE2 % Decrease ([1]; 50 μM DGLA versus 50 μM AA, chondrocyte batch 41210): 73%; PGE2 % Decrease, Avg ([1]; 50 μM DGLA versus 50 μM AA, from the batch averages): 58%; Effect on inflammatory mediators (in words) ([1]; general statement of the discovery): reduce inflammatory mediators; Quantitative PCR expression value TIMP-2 (relative average induction) [2]: 1.6; Quantitative PCR expression value TNF-alpha (relative average induction) [2]: 18.8; Effect on NF-kB activation (in words) [3]: inhibit NF-kB activation
